Source: ChEMBL document CHEMBL1137802, “Specific antioxidant activity of caffeoyl derivatives and other natural phenolic compounds: LDL protection against oxidation and decrease in the proinflammatory lysophosphatidylcholine production” (J Nat Prod, 2001)

Assays:
Type in all cases: functional, cell-free
[1] = Antioxidant activity against Cu2+-induced lipid peroxidation in human plasma LDL assessed as maximal compound concentration at 10 umol/L preincubated for 1 hr before Cu2+ challenge measured after 180 mins relative to compound present at 0 min
[2] = Antioxidant activity against Cu2+-induced lipid peroxidation in human plasma LDL assessed as vitamin E consumption at 10 umol/L preincubated for 1 hr before Cu2+ challenge measured after 45 mins
[3] = Antioxidant activity against Cu2+-induced lipid peroxidation in human plasma LDL assessed as conjugated diene formation at 5 umol/L preincubated for 1 hr before Cu2+ challenge measured after 150 mins
[4] = Antioxidant activity against Cu2+-induced lipid peroxidation in human plasma LDL assessed as maximal compound concentration at 5 umol/L preincubated for 1 hr before Cu2+ challenge measured after 30 mins relative to compound present at 0 min
[5] = Antioxidant activity against Cu2+-induced lipid peroxidation in human plasma LDL assessed as lysophosphatidylcholine formation at 10 umol/L preincubated for 1 hr before Cu2+ challenge measured after 150 mins
[6] = Antioxidant activity against Cu2+-induced lipid peroxidation in human plasma LDL assessed as lysophosphatidylcholine formation at 5 umol/L preincubated for 1 hr before Cu2+ challenge measured after 360 mins
[7] = Antioxidant activity against Cu2+-induced lipid peroxidation in human plasma LDL assessed as vitamin E consumption at 10 umol/L preincubated for 1 hr before Cu2+ challenge measured after 90 mins
[8] = Antioxidant activity against Cu2+-induced lipid peroxidation in human plasma LDL assessed as lysophosphatidylcholine formation at 10 umol/L preincubated for 1 hr before Cu2+ challenge measured after 60 mins
[9] = Antioxidant activity against Cu2+-induced lipid peroxidation in human plasma LDL assessed as conjugated diene formation at 5 umol/L preincubated for 1 hr before Cu2+ challenge measured after 120 mins

CC(C)(Sc1cc(C(C)(C)C)c(O)c(C(C)(C)C)c1)Sc1cc(C(C)(C)C)c(O)c(C(C)(C)C)c1
Activity [1]: 31.2% | Activity [2]: 11% | Activity [3]: 78.3% | Activity [4]: 94.8% | Activity [5]: 3% | Activity [6]: 29.1% | Activity [7]: 0% | Activity [8]: 0.7% | Activity [9]: 78.6%
